Assay results taken from PubChem BioAssay AID256 (DTP/NCI, 2004).
Several values for one entry are separate records, joined by “and”; a condition that tells them apart may be missing. Equal entries are not always repeated. Inconclusive results and toxic doses are left out.

Tested on: CD2F1 mice, L1210 leukemia ip, survival T/C
Experiment: NCI In Vivo Anticancer Drug Screen. Data for tumor model L1210 Leukemia (intraperitoneal) in CD2F1 (CDF1) mice
Details: endpoint: median survival time, higher = longer survival
Summary of the method: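 Ratio T/C, where T is the treated-group value and C the vehicle-dosed control value, from mice implanted with a transplantable tumor.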

COc1cc([C@@H]2c3cc4c(cc3[C@@H](OC3OC5COC(C)OC5C(O)C3O)[C@H]3COC(=O)[C@H]23)OCO4)cc(OC)c1O (stereo partly drawn)
T/C (dose: 16.0 mg/kg/injection, schedule: Q04DX003 (ip), vehicle: other): 212 % of control | T/C (dose: 16.0 mg/kg/injection, schedule: Q08DX002 (ip), vehicle: other): 200 % of control | T/C (dose: 32.0 mg/kg/injection, schedule: Q01DX001 (ip), vehicle: other): 162 % of control | T/C (dose: 32.0 mg/kg/injection, schedule: Q01DX001 (oral), vehicle: Klucel (hydroxypropylcellulose) (HPC)): 105 % of control | T/C (dose: 32.0 mg/kg/injection, schedule: Q01DX001 (sc), vehicle: other): 150 % of control | T/C (dose: 32.0 mg/kg/injection, schedule: Q01DX009 (ip), vehicle: other): 87 % of control | T/C (dose: 32.0 mg/kg/injection, schedule: Q01DX009 (ip), vehicle: saline): 110 % of control | T/C (dose: 32.0 mg/kg/injection, schedule: Q01DX009 (oral), vehicle: Klucel (hydroxypropylcellulose) (HPC)): 122 % of control | T/C (dose: 32.0 mg/kg/injection, schedule: Q01DX009 (sc), vehicle: other): 87 % of control | T/C (dose: 32.0 mg/kg/injection, schedule: Q03HX008 (oral), vehicle: Klucel (hydroxypropylcellulose) (HPC)): 122 % of control | T/C (dose: 32.0 mg/kg/injection, schedule: Q03HX016 (oral), vehicle: Klucel (hydroxypropylcellulose) (HPC)): 116 % of control | T/C (dose: 32.0 mg/kg/injection, schedule: Q04DX003 (ip), vehicle: other): 206 % of control | T/C (dose: 32.0 mg/kg/injection, schedule: Q04DX003 (oral), vehicle: Klucel (hydroxypropylcellulose) (HPC)): 105 % of control | T/C (dose: 32.0 mg/kg/injection, schedule: Q08DX002 (ip), vehicle: other): 200 % of control | T/C (dose: 32.0 mg/kg/injection, schedule: Q08DX002 (oral), vehicle: Klucel (hydroxypropylcellulose) (HPC)): 111 % of control | T/C (dose: 64.0 mg/kg/injection, schedule: Q01DX001 (ip), vehicle: other): 218 % of control | T/C (dose: 64.0 mg/kg/injection, schedule: Q01DX001 (oral), vehicle: Klucel (hydroxypropylcellulose) (HPC)): 111 % of control | T/C (dose: 64.0 mg/kg/injection, schedule: Q01DX001 (sc), vehicle: other): 187 % of control | T/C (dose: 64.0 mg/kg/injection, schedule: Q01DX009 (ip), vehicle: saline): 102 % of control | T/C (dose: 64.0 mg/kg/injection, schedule: Q01DX009 (oral), vehicle: other): 162 % of control | T/C (dose: 64.0 mg/kg/injection, schedule: Q03HX008 (oral), vehicle: Klucel (hydroxypropylcellulose) (HPC)): 116 % of control | T/C (dose: 64.0 mg/kg/injection, schedule: Q03HX024 (oral), vehicle: Klucel (hydroxypropylcellulose) (HPC)): 94 % of control | T/C (dose: 64.0 mg/kg/injection, schedule: Q04DX003 (ip), vehicle: other): 156 % of control | T/C (dose: 64.0 mg/kg/injection, schedule: Q04DX003 (oral), vehicle: Klucel (hydroxypropylcellulose) (HPC)): 122 % of control | T/C (dose: 64.0 mg/kg/injection, schedule: Q08DX002 (ip), vehicle: other): 212 % of control | T/C (dose: 64.0 mg/kg/injection, schedule: Q08DX002 (oral), vehicle: Klucel (hydroxypropylcellulose) (HPC)): 111 % of control | T/C (dose: 128.0 mg/kg/injection, schedule: Q01DX001 (ip), vehicle: other): 112 % of control | T/C (dose: 128.0 mg/kg/injection, schedule: Q01DX001 (oral), vehicle: Klucel (hydroxypropylcellulose) (HPC)): 111 % of control | T/C (dose: 128.0 mg/kg/injection, schedule: Q01DX001 (sc), vehicle: other): 87 % of control | T/C (dose: 128.0 mg/kg/injection, schedule: Q03HX008 (oral), vehicle: Klucel (hydroxypropylcellulose) (HPC)): 122 % of control | T/C (dose: 128.0 mg/kg/injection, schedule: Q03HX016 (oral), vehicle: Klucel (hydroxypropylcellulose) (HPC)): 150 % of control | T/C (dose: 128.0 mg/kg/injection, schedule: Q04DX003 (ip), vehicle: other): 118 % of control | T/C (dose: 128.0 mg/kg/injection, schedule: Q04DX003 (oral), vehicle: Klucel (hydroxypropylcellulose) (HPC)): 116 % of control | T/C (dose: 128.0 mg/kg/injection, schedule: Q08DX002 (ip), vehicle: other): 175 % of control | T/C (dose: 128.0 mg/kg/injection, schedule: Q08DX002 (oral), vehicle: Klucel (hydroxypropylcellulose) (HPC)): 111 % of control | T/C (dose: 256.0 mg/kg/injection, schedule: Q01DX001 (oral), vehicle: Klucel (hydroxypropylcellulose) (HPC)): 122 % of control | T/C (dose: 256.0 mg/kg/injection, schedule: Q01DX001 (oral), vehicle: other): 118 % of control and 112 % of control | T/C (dose: 256.0 mg/kg/injection, schedule: Q01DX001 (sc), vehicle: other): 87 % of control | T/C (dose: 256.0 mg/kg/injection, schedule: Q04DX003 (oral), vehicle: Klucel (hydroxypropylcellulose) (HPC)): 122 % of control | T/C (dose: 256.0 mg/kg/injection, schedule: Q08DX002 (oral), vehicle: Klucel (hydroxypropylcellulose) (HPC)): 111 % of control | T/C (dose: 512.0 mg/kg/injection, schedule: Q01DX001 (oral), vehicle: Klucel (hydroxypropylcellulose) (HPC)): 122 % of control | T/C (dose: 512.0 mg/kg/injection, schedule: Q01DX001 (oral), vehicle: other): 150 % of control | T/C (dose: 512.0 mg/kg/injection, schedule: Q01DX009 (oral), vehicle: other): 100 % of control and 112 % of control | T/C (dose: 512.0 mg/kg/injection, schedule: Q08DX002 (oral), vehicle: Klucel (hydroxypropylcellulose) (HPC)): 105 % of control | T/C (dose: 1024.0 mg/kg/injection, schedule: Q01DX001 (oral), vehicle: Klucel (hydroxypropylcellulose) (HPC)): 122 % of control | T/C (dose: 1024.0 mg/kg/injection, schedule: Q01DX001 (oral), vehicle: other): 150 % of control | T/C (dose: 1024.0 mg/kg/injection, schedule: Q01DX009 (oral), vehicle: other): 87 % of control and 100 % of control | T/C (dose: 1024.0 mg/kg/injection, schedule: Q08DX002 (oral), vehicle: Klucel (hydroxypropylcellulose) (HPC)): 111 % of control
